Measurements reported in ChEMBL document CHEMBL6127112, “Discovery of Novel Nonpeptidic Proteasome Inhibitors Using Covalent Virtual Screening and Biological Evaluation” (ACS Med Chem Lett, 2024).
Each block holds one compound with its values, some of them ahead of it. Calls of active or inactive are those of the source. No cut-off for these calls is given here.

Columns and labels:
[1] = biological target: T1, 20S proteasome (Homo sapiens) (UniProt P49721+P20618+P28074+P28062+P28065+P28072+P25786+P25787+P25788+P25789+P28066+P60900+O14818+Q8TAA3+P40306+A5LHX3+P49720+P28070+Q99436); experiment: (§1) Inhibition of human erythrocyte-derived 20S constitutive proteasome protein using Suc-LLVY-AMC as substrate preincubated for 15 mins followed by substrate addition and measured after 30 mins by multimode plate reader analysis; settings: time 45.0 min
[2] = biological target: T1, 20S proteasome (Homo sapiens); experiment: Inhibition of human erythrocyte-derived 20S constitutive proteasome protein at 100 uM using Suc-LLVY-AMC as substrate preincubated for 15 mins followed by substrate addition and measured after 30 mins by multimode plate reader analysis relative to control; settings: time 45.0 min
[3] = biological target: 20S proteasome; experiment: as §1
[4] = biological target: T1, 20S proteasome (Homo sapiens); experiment: Inhibition of human 20S immunoproteasome protein at 100 uM using Suc-LLVY-AMC as substrate preincubated for 15 mins followed by substrate addition and measured after 30 mins by multimode plate reader analysis relative to control; format: protein-complex assay; settings: time 45.0 min
[5] = biological target: Cathepsin B (Homo sapiens, UniProt P07858); experiment: Inhibition of human Cathepsin B using Ac-RR-AFC as substrate preincubated for 10 to 15 mins followed by substrate addition and measured for 30 to 60 mins by fluorescence based assay
[6] = Cytotoxicity against HEK293T cells assessed as reduction in cell viability incubated for 72 hrs by CellTiter 96 non-radioactive cell proliferation assay; format: toxicity, cell-based, HEK-293T; settings: human
[7] = test system: NCI-H929; experiment: Antiproliferative activity against human NCI-H929 cells assessed as reduction in cell viability incubated for 72 hrs by CellTiter 96 non-radioactive cell proliferation assay; format: functional, cell-based
[8] = biological target: Procathepsin L (Homo sapiens, UniProt P07711); experiment: Inhibition of Cathepsin L (unknown origin) using AFC based peptide as substrate by fluorometric assay
[9] = biological target: T2, Caspase-2 (Homo sapiens, UniProt P42575); experiment: Inhibition of Caspase-2 (unknown origin) by fluorometric assay
T2 sequence (P42575 whole entry): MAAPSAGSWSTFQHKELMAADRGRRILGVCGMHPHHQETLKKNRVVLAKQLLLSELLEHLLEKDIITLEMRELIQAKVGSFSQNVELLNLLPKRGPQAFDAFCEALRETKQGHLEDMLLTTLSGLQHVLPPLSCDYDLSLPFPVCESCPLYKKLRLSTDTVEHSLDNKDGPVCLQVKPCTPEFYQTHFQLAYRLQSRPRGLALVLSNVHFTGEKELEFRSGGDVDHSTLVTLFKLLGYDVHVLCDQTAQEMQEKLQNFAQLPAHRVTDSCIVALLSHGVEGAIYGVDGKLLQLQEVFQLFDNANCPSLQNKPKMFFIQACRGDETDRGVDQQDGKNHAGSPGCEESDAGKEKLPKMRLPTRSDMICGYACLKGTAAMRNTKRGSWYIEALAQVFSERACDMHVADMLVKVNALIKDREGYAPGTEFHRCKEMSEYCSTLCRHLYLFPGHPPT

[10] = biological target: Angiotensin-converting enzyme 2 (Homo sapiens, UniProt Q9BYF1); experiment: Inhibition of human His-tagged ACE2 (18 to 740 residues) using ACE2 fluorogenic substrate incubated for 60 mins by fluorescence based assay
Angiotensin-converting enzyme 2, sequence (Q9BYF1 whole entry, the tested form may be a part): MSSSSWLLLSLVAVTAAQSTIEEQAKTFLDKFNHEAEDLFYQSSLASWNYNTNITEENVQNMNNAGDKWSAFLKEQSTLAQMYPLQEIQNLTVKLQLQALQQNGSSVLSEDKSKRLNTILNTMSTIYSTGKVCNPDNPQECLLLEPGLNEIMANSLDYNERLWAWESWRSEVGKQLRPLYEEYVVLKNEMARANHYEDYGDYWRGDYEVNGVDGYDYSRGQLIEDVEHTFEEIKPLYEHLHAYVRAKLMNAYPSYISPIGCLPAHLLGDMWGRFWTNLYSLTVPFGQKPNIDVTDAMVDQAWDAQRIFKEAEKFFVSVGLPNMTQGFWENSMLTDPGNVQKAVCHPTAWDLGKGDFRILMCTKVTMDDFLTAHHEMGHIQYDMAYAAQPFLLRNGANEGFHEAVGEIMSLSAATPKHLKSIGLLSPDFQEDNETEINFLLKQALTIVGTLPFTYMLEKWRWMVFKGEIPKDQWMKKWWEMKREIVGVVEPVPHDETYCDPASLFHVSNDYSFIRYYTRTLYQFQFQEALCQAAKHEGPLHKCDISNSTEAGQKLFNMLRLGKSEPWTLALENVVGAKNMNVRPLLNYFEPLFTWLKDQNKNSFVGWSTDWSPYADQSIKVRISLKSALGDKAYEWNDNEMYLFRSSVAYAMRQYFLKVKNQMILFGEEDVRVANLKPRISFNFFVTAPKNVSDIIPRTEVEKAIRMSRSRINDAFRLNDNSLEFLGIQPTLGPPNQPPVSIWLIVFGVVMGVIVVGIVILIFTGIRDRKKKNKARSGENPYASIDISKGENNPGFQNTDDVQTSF

Procathepsin L, sequence (P07711 whole entry): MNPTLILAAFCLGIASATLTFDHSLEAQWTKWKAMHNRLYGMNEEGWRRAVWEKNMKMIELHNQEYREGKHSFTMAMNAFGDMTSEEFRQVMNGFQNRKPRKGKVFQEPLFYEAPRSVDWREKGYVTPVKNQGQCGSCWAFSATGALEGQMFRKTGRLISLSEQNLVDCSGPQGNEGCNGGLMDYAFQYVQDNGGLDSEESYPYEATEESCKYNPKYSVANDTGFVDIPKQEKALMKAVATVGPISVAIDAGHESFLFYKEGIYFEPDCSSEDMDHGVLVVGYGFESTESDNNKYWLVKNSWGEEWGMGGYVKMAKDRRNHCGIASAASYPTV

inhibition [1]: inactive
Structure (SMILES): CC(=O)Nc1ccc(NC(=O)C(=O)c2cn(CC(=O)N3CCOCC3)c3ccccc23)cc1

inhibition [2]: 50%
inhibition [1]: Dose-Dependent Effect
IC50 [3]: 107 µM
inhibition [4]: 50%
Structure (SMILES): COc1ccc(NC(=O)C(=O)c2cn(CC(=O)N3CCOCC3)c3ccccc23)cc1OC

inhibition [1]: inactive
Structure (SMILES): Cc1ccc(NC(=O)C(=O)c2cn(CC(=O)N3CCOCC3)c3ccccc23)c(C)c1

Structure (SMILES): O=C(Nc1ccc2c(c1)OCCO2)C(=O)c1cn(Cc2ccc(Cl)cc2)c2ccccc12
inhibition [1]: inactive

Structure (SMILES): CC[C@@H](C)NC(=O)C(=O)c1cn(CC(=O)N2CCOCC2)c2ccccc12
IC50 [3]: 69.2 µM

inhibition [2]: 26%
Structure (SMILES): O=C(NCc1ccccc1)C(=O)c1cn(CC(=O)N2CCOCC2)c2ccccc12

IC50 [5]: > 100 µM
IC50 [3]: 18.5 µM
IC50 [8]: > 100 µM
IC50 [9]: > 100 µM
IC50 [10]: > 100 µM
Structure (SMILES): COc1ccc(NC(=O)C(=O)c2cn(CC(=O)N3CCCCC3)c3ccccc23)cc1OC
CC50 at 72 h [6]: > 200 µM
Activity [7]: Dose-Dependent Effect

inhibition [1]: inactive
Structure (SMILES): COc1cc(NC(=O)C(=O)c2ccn(Cc3ccccc3)c2)cc(OC)c1

IC50 [5]: > 100 µM
IC50 [3]: 12.4 µM
IC50 [8]: > 100 µM
IC50 [9]: > 100 µM
IC50 [10]: > 100 µM
Structure (SMILES): CCN(CC)C(=O)Cn1cc(C(=O)C(=O)Nc2ccc3c(c2)OCCO3)c2ccccc21
CC50 at 72 h [6]: > 200 µM
Activity [7]: Dose-Dependent Effect

inhibition [1]: inactive
Structure (SMILES): O=C(Nc1ccccc1-c1ccccc1)C(=O)c1cn(CC(=O)N2CCOCC2)c2ccccc12

inhibition [2]: 55%
Structure (SMILES): O=C(Nc1ccccc1)C(=O)c1cn(CC(=O)N2CCOCC2)c2ccccc12

IC50 [3]: 40.8 µM
Structure (SMILES): O=C(Nc1ccc2c(c1)OCCO2)C(=O)c1cn(CC(=O)N2CCOCC2)c2ccccc12

IC50 [3]: 31.3 µM
Structure (SMILES): CC(=O)c1cccc(NC(=O)C(=O)c2cn(CC(=O)N3CCOCC3)c3ccccc23)c1
